Test [1] relates to Cell membrane. Nature of the test: Induction of membrane depolarization in methicillin-resistant Staphylococcus aureus USA300 by […] dye-based fluorescence assay. Type of test: subcellular.
The next test relates to Staphylococcus aureus. Nature of the test: Antibacterial activity against Staphylococcus aureus USA300 assessed as bacterial growth inhibition by checkerboard assay. Type of test: functional.
The test system of test [2] is Cell membrane. Nature of the test: Induction of membrane depolarization in methicillin-resistant Staphylococcus aureus USA300 assessed as measuring minimum effective concentration by DiSC3(5) dye-based fluorescence assay.
The subject of test [3] is Bacteria. Description: Inhibition of ATP-dependent ClpXP proteases (unknown origin).
The test system of test [4] is Bacteria. Description: Inhibition of ATP-dependent ClpYQ proteases (unknown origin).
Test [5] relates to Cell membrane. Nature of the test: Induction of membrane depolarization in methicillin-resistant Staphylococcus aureus USA300 assessed as disruption of transmembrane electrical potential by DiSC3(5) dye-based fluorescence assay.
Test [6] concerns Cell membrane. Description: Induction of membrane depolarization in methicillin-resistant Staphylococcus aureus USA300 assessed as disruption of transmembrane proton gradient by DiSC3(5) dye-based fluorescence assay.
In test [7] the test system is Escherichia coli. Description: Antagonistic antibacterial activity against Escherichia coli harbouring TolC-deficient mutant assessed as fractional inhibitory concentration in presence of kanamycin by checker board assay. Type of test: functional.
Test [8] deals with Escherichia coli. Nature of the test: Antibacterial activity against Escherichia coli harbouring TolC-deficient mutant assessed as fractional inhibitory concentration in presence of tetracycline by checker board assay. It is filed as functional.

≈ marks a conversion by molar mass, not a printed value. Calls of active or inactive are those of the source. No cut-off for these calls is given here.

One may read the EC50 as the concentration that produces a half-maximal response. Low readings indicate a more potent agent, high ones a less potent agent. The term MIC denotes the least concentration at which growth counts as inhibited. In the test with Cell membrane [1], `CCCCCCc1c(OC)c(Cl)cc2c1OC1(C2=O)C(Cl)=C(Cl)C(=O)N1CCCCCC` (stereo not drawn) had an EC50 of 0.54 µg/mL (≈ 1.07 µM). For the same compound, the MIC in the test with Staphylococcus aureus came out at 4 µg/mL. For the same compound, in the test on Cell membrane [2], the MEC was 0.125 µg/mL. Also, the inhibition entry in the test with Bacteria [3] and in the test with Bacteria [4] was “inactive” in each case.
In the test with Cell membrane [1], `C=CCN1C(=O)C(Cl)=C(Cl)C12Oc1c(cc(Cl)c(O)c1CCCCCC)C2=O` (stereo not drawn) came in with a concentration for a half-maximal effect (EC50) of 0.23 µg/mL (≈ 0.517 µM). Besides, the MIC with Staphylococcus aureus was 4 µg/mL. In addition, the MEC in the test with Cell membrane [2] turned out to be 0.25 µg/mL.
For `Cc1c(O)c(Cl)cc2c1OC1(C2=O)C(Cl)=C(Cl)C(=O)N1Cc1ccccc1` (stereo not drawn), in that order: 3.2 µg/mL (≈ 7.54 µM), 32 µg/mL and 4 µg/mL.
With `CC(C)[C@@H]1NC(=O)[C@H](C)OC(=O)[C@@H](C(C)C)NC(=O)[C@@H](C(C)C)OC(=O)[C@H](C(C)C)NC(=O)[C@H](C)OC(=O)[C@@H](C(C)C)NC(=O)[C@@H](C(C)C)OC(=O)[C@H](C(C)C)NC(=O)[C@H](C)OC(=O)[C@@H](C(C)C)NC(=O)[C@@H](C(C)C)OC1=O`, the outcome with Cell membrane [5] was Active.
`CCCCCCc1c(O)c(Cl)cc2c1OC1(C2=O)C(Cl)=C(Cl)C(=O)N1Cc1ccccc1` (stereo not drawn) gave an EC50 with Cell membrane [1] of 0.39 µg/mL (≈ 0.788 µM). Further, the MIC in the test on Staphylococcus aureus came out at 1 µg/mL. In addition, in the test with Cell membrane [2], the MEC worked out at 0.5 µg/mL.
For `CCCCCCCCCCCCN1C(=O)C(Cl)=C(Cl)C12Oc1c(cc(Cl)c(O)c1C)C2=O` (stereo not drawn), in that order: 0.28 µg/mL (≈ 0.557 µM), 1 µg/mL and 0.25 µg/mL.
Take `CCCCCCc1c(OC)c(Cl)cc2c1OC1(C2)NC(=O)C(Cl)=C1Cl` (stereo not drawn): the result with Cell membrane [5] was Active.
With `Cc1c(O)c(Cl)cc2c1OC1(C2=O)C(Cl)=C(Cl)C(=O)N1C` (stereo not drawn), the EC50 with Cell membrane [1] is greater than 8 µg/mL. Moreover, the MIC in the test with Staphylococcus aureus was greater than 32 µg/mL. In the test on Cell membrane [2], the MEC came out at 8 µg/mL.
For `CCCCCCc1c(O)c(Cl)cc2c1OC1(C2=O)C(Cl)=C(Cl)C(=O)N1Cc1ccc(C(F)(F)F)cc1` (stereo not drawn), in that order: 0.3 µg/mL (≈ 0.533 µM), 2 µg/mL and 0.125 µg/mL.
Turning to `Cc1c(O)c(Cl)cc2c1OC1(C2=O)C(Cl)=C(Cl)C(=O)N1Cc1ccc(C(F)(F)F)cc1` (stereo not drawn), the EC50 in the test with Cell membrane [1] was found to be 2.45 µg/mL (≈ 4.97 µM). The MIC in the test on Staphylococcus aureus was 16 µg/mL. Further, the MEC with Cell membrane [2] was 2 µg/mL.
Regarding `CO[C@@H]1C[C@@H](C[C@H]2CC[C@H](C)[C@H]([C@@H](C)C(=O)O)O2)O[C@]2(O[C@](C)([C@H]3CC[C@@](C)([C@@H]4O[C@@H]([C@H]5O[C@@](O)(CO)[C@H](C)C[C@@H]5C)C[C@@H]4C)O3)C[C@H]2C)[C@@H]1C`, the result with Cell membrane [6] was Active.
For `CCCCCCc1c(O)c(Cl)cc2c1OC1(C2=O)C(Cl)=C(Cl)C(=O)N1Cc1ccc(C)cc1` (stereo not drawn), the EC50 with Cell membrane [1] is 0.07 µg/mL (≈ 0.138 µM). Besides, the MIC in the test on Staphylococcus aureus was determined as 0.5 µg/mL. In addition, in the test on Cell membrane [2], the MEC amounted to 0.125 µg/mL. Also, the FIC with Escherichia coli [7] was greater than 4.
For `C=CCN1C(=O)C(Cl)=C(Cl)C12Oc1c(cc(Cl)c(O)c1C)C2=O` (stereo not drawn), the EC50 in the test on Cell membrane [1] is greater than 8 µg/mL. Moreover, the MIC with Staphylococcus aureus was greater than 32 µg/mL. Also, the MEC with Cell membrane [2] worked out at 8 µg/mL.
Compound `CCCCCCc1c(O)c(Cl)cc2c1OC1(C2=O)C(Cl)=C(Cl)C(=O)N1C` (stereo not drawn) yielded an EC50 in the test on Cell membrane [1] of 0.42 µg/mL (≈ 1 µM). Also, the MIC with Staphylococcus aureus was found to be 4 µg/mL. In addition, in the test on Cell membrane [2], the MEC was 0.5 µg/mL. In addition, the outcome with Cell membrane [5] was Active. Further, the values for the FIC in the test with Escherichia coli [7] and in the test on Escherichia coli [8] were greater than 4 and 0.656, respectively.
For `CCCCCCc1c(OC)c(Cl)cc2c1OC1(C2=O)C(Cl)=C(Cl)C(=O)N1C` (stereo not drawn), in the test on Cell membrane [1], the EC50 is 2.04 µg/mL (≈ 4.71 µM). The minimum inhibitory concentration (MIC) in the test with Staphylococcus aureus is greater than 32 µg/mL. Further, in the test with Cell membrane [2], the MEC worked out at 4 µg/mL.
`CCCCCCc1c(O)c(Cl)cc2c1OC1(C2=O)C(Cl)=C(Cl)C(=O)N1CCCCCC` (stereo not drawn): the EC50 in the test with Cell membrane [1] is 0.07 µg/mL (≈ 0.143 µM). In addition, the MIC in the test on Staphylococcus aureus was 1 µg/mL. In addition, the MEC with Cell membrane [2] came out at 0.0312 µg/mL. Moreover, the FIC in the test on Escherichia coli [7] is recorded as greater than 4.
In the test on Cell membrane [1], `CCCCCCCCCCCCN1C(=O)C(Cl)=C(Cl)C12Oc1c(cc(Cl)c(O)c1CCCCCC)C2=O` (stereo not drawn) showed an EC50 greater than 8 µg/mL. In addition, in the test with Staphylococcus aureus, the minimum inhibitory concentration (MIC) worked out at 16 µg/mL. Moreover, the MEC in the test with Cell membrane [2] is greater than 1 µg/mL.
The compound `CCCCCCc1c(O)c(Cl)cc2c1OC1(C2=O)C(Cl)=C(Cl)C(=O)N1CCc1ccccc1` (stereo not drawn) came in with a 50% effective concentration (EC50) with Cell membrane [1] of 0.12 µg/mL (≈ 0.236 µM). Moreover, in the test on Staphylococcus aureus, the MIC is 0.5 µg/mL. The MEC with Cell membrane [2] is 0.125 µg/mL.
For `CCCCCCN1C(=O)C(Cl)=C(Cl)C12Oc1c(cc(Cl)c(O)c1C)C2=O` (stereo not drawn), in that order: 0.17 µg/mL (≈ 0.406 µM), 4 µg/mL and 0.5 µg/mL.
